Reference: patent US20240262832A1, “SMALL MOLECULE MODULATORS OF GLUCOCEREBROSIDASE ACTIVITY AND USES THEREOF” (Vanqua Bio, Inc., priority 2021, published 2024)

What follows are compounds tested against T1, GCase (Homo sapiens, UniProt P04062) (assay: activation of GCase in a live cell PFB assay in HELA cells).
T1 construct: endogenous in cells; host or cells: HeLa cells
T1 sequence (P04062 40-536): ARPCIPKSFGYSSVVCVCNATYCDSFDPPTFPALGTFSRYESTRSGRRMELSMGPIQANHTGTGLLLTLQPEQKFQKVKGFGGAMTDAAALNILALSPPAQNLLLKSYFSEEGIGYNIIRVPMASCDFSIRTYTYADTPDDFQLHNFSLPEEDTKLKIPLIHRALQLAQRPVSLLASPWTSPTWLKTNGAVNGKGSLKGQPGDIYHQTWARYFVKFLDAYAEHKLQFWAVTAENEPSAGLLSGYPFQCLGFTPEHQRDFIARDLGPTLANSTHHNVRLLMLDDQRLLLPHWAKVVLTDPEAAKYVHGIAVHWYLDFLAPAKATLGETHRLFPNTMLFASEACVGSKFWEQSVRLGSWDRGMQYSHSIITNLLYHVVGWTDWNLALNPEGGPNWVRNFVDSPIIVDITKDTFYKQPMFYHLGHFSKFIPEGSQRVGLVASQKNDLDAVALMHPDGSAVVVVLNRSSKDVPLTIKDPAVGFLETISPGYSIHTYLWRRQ
Assay type: cell-based

| SMILES | EC50 |
| --- | --- |
| CC(CSC(F)(F)F)C(=O)N1CCCC(COc2ccccc2)C1 (stereo not shown) [Compound 133] | > 100 µM |
| Cc1cnc2c(C(=O)N3CCCC(COc4ccccc4C)C3)c(-c3ccccc3)n(C)c2n1 (stereo not shown) [Compound 257, (3,5-Dimethyl-6-phenyl-5H-pyrrolo[2,3-b]pyrazin-7-yl)(3-((o-tolyloxy)methyl)piperidin-1-yl)methanone] | 50 to 100 µM |
| COc1ccc(OCC2CCN(C(=O)CN3C(=O)CCC3C)CC2)cc1 (stereo not shown) [Compound 483] | 50 to 100 µM |
| COc1ccc(OCC2CCN(CCCn3ccnc3C)CC2)cc1 [Compound 454] | > 100 µM |
| COc1ccc(OCC2CCN(C(=O)Nc3cnn(C)c3C)CC2)cc1 [Compound 439] | 50 to 100 µM |
| COc1ccc(OCC2CCN(C(=O)c3cnc(O)cn3)CC2)cc1 [Compound 452] | > 100 µM |
| O=C(NCCc1ccccc1)N1CCC(Oc2ccc(C(F)(F)F)cn2)CC1 [Compound 379] | > 100 µM |
| O=C(c1ccc(-c2nnc[nH]2)cc1)N1CCC(OCc2ccccc2)CC1 [Compound 468] | 50 to 100 µM |
| COc1ccc(OCC2CCN(Cc3ccncc3C)CC2)cc1 [Compound 445] | > 100 µM |
| CCc1noc(CNC(=O)N2CCC(COc3ccc(OC)cc3)CC2)n1 [Compound 436] | > 100 µM |
| COc1ccc(OCC2CCN(c3nccnc3N(C)C)CC2)cc1 [Compound 441] | > 100 µM |
| O=C(c1ccc(Cn2cccn2)o1)N1CCC(OCc2ccccc2)CC1 [Compound 449] | > 100 µM |
| CC(=O)N1CCC(c2cc3nc(N4CCCC(COc5ccccc5)C4)cnc3n2C)CC1 (stereo not shown) [Compound 41, 1-(4-{5-Methyl-2-[3-(phenoxymethyl)piperidin-1-yl]-5H-pyrrolo[2,3-b]pyrazin-6-yl}piperidin-1-yl)ethan-1-one] | > 100 µM |
| COc1ccc(CCCC(=O)N2CCCC(COc3ccccc3)C2)cc1 (stereo not shown) [Compound 182] | 10 to 50 µM |
| FC(F)(F)c1ncccc1OC[C@@H]1[C@H]2CN(c3cncc(-c4nncs4)n3)C[C@@H]12 [Compound 40, (1R,5S,6S)-3-[6-(1,3,4-Thiadiazol-2-yl)pyrazin-2-yl]-6-({[2-(trifluoromethyl)pyridin-3-yl]oxy}methyl)-3-azabicyclo[3.1.0]hexane] | 10 to 50 µM |
| Fc1cc(F)cc(OC[C@@H]2[C@H]3CN(c4cnc5cnn(C6COC6)c5n4)C[C@@H]23)c1 [Compound 124] | 10 to 50 µM |
| Fc1nccc(OC[C@@H]2[C@H]3CN(c4cnc5cnn(C6COC6)c5n4)C[C@@H]23)c1F [Compound 228] | 10 to 50 µM |
| C[C@H](Oc1ccccc1C(F)(F)F)[C@@H]1CCCN(c2cnc3cnn(CC(F)F)c3n2)C1 [Compound 266b, 1-(2,2-difluoroethyl)-6-((R)-3-((S)-1-(2-(trifluoromethyl)phenoxy)ethyl)piperidin-1-yl)-1H-pyrazolo[3,4-b]pyrazine] | 10 to 50 µM |

Next, values leading:

| EC50 | SMILES |
| --- | --- |
| 10 to 50 µM | O=C(c1ccc2cc[nH]c2c1)N1C[C@@H]2[C@@H](COc3cccc(C(F)(F)F)n3)[C@@H]2C1 [Compound 74, 6-[(1R,5S,6S)-6-({[6-(trifluoromethyl)pyridin-2-yl]oxy}methyl)-3-azabicyclo[3.1.0]hexane-3-carbonyl]-1H-indole] |
| 10 to 50 µM | C[C@@H]1CC[C@H](COc2cncc(C(F)(F)F)c2)CN1c1cnc2cnn(CC(F)F)c2n1 [Compound 273, 1-(2,2-Difluoroethyl)-6-((2R,5S)-2-methyl-5-(((5-(trifluoromethyl)pyridin-3-yl)oxy)methyl)piperidin-1-yl)-1H-pyrazolo[3,4-b]pyrazine] |
| < 10 µM | CC1CCC(COc2cccnc2C(F)(F)F)CN1c1cnc2cnn(CC(F)F)c2n1 (stereo not shown) [Compound 31, 1-(2,2-Difluoroethyl)-6-(2-methyl-5-(((2-(trifluoromethyl)pyridin-3-yl)oxy)methyl)piperidin-1-yl)-1H-pyrazolo[3,4-b]pyrazine] |
| < 10 µM | CC(C)c1cc(C(=O)N2CCCC(COc3ccccc3)C2)c(C(C)C)o1 (stereo not shown) [Compound 207] |
| 10 to 50 µM | Cn1c(-c2ccc(F)cc2)cc2ncc(C(=O)N3CCCC(COc4cccnc4C(F)(F)F)C3)nc21 (stereo not shown) [Compound 58, (6-(4-fluorophenyl)-5-methyl-5H-pyrrolo[2,3-b]pyrazin-3-yl)(3-(((2-(trifluoromethyl)pyridin-3-yl)oxy)methyl)piperidin-1-yl)methanone] |
| 10 to 50 µM | FC(F)Cn1ncc2ncc(N3CCC(F)(F)C(COc4cccc(C(F)(F)F)n4)C3)nc21 (stereo not shown) [Compound 42, 2-({1-[1-(2,2-Difluoroethyl)-1H-pyrazolo[3,4-b]pyrazin-6-yl]-4,4-difluoropiperidin-3-yl}methoxy)-6-(trifluoromethyl)pyridine] |
| 10 to 50 µM | COc1ccc(OCC2CCN(C(=O)c3cccc(C#CC(C)(C)O)c3)CC2)cc1 [Compound 420] |
| 10 to 50 µM | Cc1ccc(-c2nc(N3CCC(CO)CC3)ncc2-c2ccc(CO)cc2)cc1 [Compound 485] |
| 10 to 50 µM | O=C(c1ccn(Cc2ccccc2)n1)N1CCCC(COc2ccccc2)C1 (stereo not shown) [Compound 11] |
| 10 to 50 µM | FC(F)Cn1ncc2ncc(N3C[C@@H]4[C@@H](COc5ccnc(C(F)(F)F)c5)[C@@H]4C3)nc21 [Compound 92, (1R,5S,6S)-3-[1-(2,2-difluoroethyl)-1H-pyrazolo[3,4-b]pyrazin-6-yl]-6-({[2-(trifluoromethyl)pyridin-4-yl]oxy}methyl)-3-azabicyclo[3.1.0]hexane] |
| 10 to 50 µM | FC(F)Cn1ncc2ncc(N3C[C@@H]4[C@@H](COc5cccc(C(F)(F)F)n5)[C@@H]4C3)nc21 [Compound 36, (1R,5S,6S)-3-[1-(2,2-Difluoroethyl)-1H-pyrazolo[3,4-b]pyrazin-6-yl]-6-({[6-(trifluoromethyl)pyridin-2-yl]oxy}methyl)-3-azabicyclo[3.1.0]hexane] |
| < 10 µM | COC1CC(COc2cccnc2C(F)(F)F)CN(c2cnc3cnn(CC(F)F)c3n2)C1 (stereo not shown) [Compound 291, 1-(2,2-Difluoroethyl)-6-(3-methoxy-5-(((2-(trifluoromethyl)pyridin-3-yl)oxy)methyl)piperidin-1-yl)-1H-pyrazolo[3,4-b]pyrazine] |
| 10 to 50 µM | C[C@@H]1CC[C@H](COc2ccc(C(F)(F)F)nc2)CN1c1cnc2cnn(CC(F)F)c2n1 [Compound 272, 1-(2,2-Difluoroethyl)-6-((2R,5S)-2-methyl-5-(((6-(trifluoromethyl)pyridin-3-yl)oxy)methyl)piperidin-1-yl)-1H-pyrazolo[3,4-b]pyrazine] |
| < 10 µM | FC(F)Cn1ncc2ncc(N3CCC(COc4cccnc4C(F)(F)F)CC3)nc21 [Compound 323, 3-({1-[1-(2,2-Difluoroethyl)-1H-pyrazolo[3,4-b]pyrazin-6-yl]piperidin-4-yl}methoxy)-2-(trifluoromethyl)pyridine] |
| 10 to 50 µM | FC(F)Cn1ncc2ncc(N3C[C@@H]4[C@@H](COc5cncc(C(F)(F)F)c5)[C@@H]4C3)nc21 [Compound 62, (1R,5S,6S)-3-[1-(2,2-difluoroethyl)-1H-pyrazolo[3,4-b]pyrazin-6-yl]-6-({[5-(trifluoromethyl)pyridin-3-yl]oxy}methyl)-3-azabicyclo[3.1.0]hexane] |
| 10 to 50 µM | Cn1c(-c2ccc(F)cc2)nc2ncc(C(=O)N3CCCC(COc4cccnc4C(F)(F)F)C3)nc21 (stereo not shown) [Compound 96, (2-(4-Fluorophenyl)-1-methyl-1H-imidazo[4,5-b]pyrazin-6-yl)(3-(((2-(trifluoromethyl)pyridin-3-yl)oxy)methyl)piperidin-1-yl)methanone] |
| 10 to 50 µM | CC(C)c1cc(C(=O)N2C[C@@H]3[C@@H](COc4cccc(C(F)(F)F)n4)[C@@H]3C2)[nH]n1 [Compound 75, (1R,5S,6S)-3-[3-(Propan-2-yl)-1H-pyrazole-5-carbonyl]-6-({[6-(trifluoromethyl)pyridin-2-yl]oxy}methyl)-3-azabicyclo[3.1.0]hexane] |
| 10 to 50 µM | Cn1c(-c2ccc(F)cc2)nc2ncc(C(=O)N3C[C@@H]4[C@@H](COc5cccnc5C(F)(F)F)[C@@H]4C3)nc21 [Compound 224] |
| < 10 µM | Cc1ccccc1OCC1CCCN(C(=O)c2cnn3c(-c4ccccc4C#N)ccc(F)c23)C1 (stereo not shown) [Compound 296, 2-(4-Fluoro-3-(3-((o-tolyloxy)methyl)piperidine-1-carbonyl)pyrazolo[1,5-a]pyridin-7-yl)benzonitrile] |
| 10 to 50 µM | C[C@@H](Oc1ccccc1C(F)(F)F)[C@H]1CCCN(c2cnc3cnn(CC(F)F)c3n2)C1 [Compound 266a, 1-(2,2-Difluoroethyl)-6-((S)-3-((R)-1-(2-(trifluoromethyl)phenoxy)ethyl)piperidin-1-yl)-1H-pyrazolo[3,4-b]pyrazine] |
| 10 to 50 µM | FC(F)Cn1ncc2ncc(N3CC4CC4(COc4cc(C(F)(F)F)ccn4)C3)nc21 (stereo not shown) [Compound 285, 3-[1-(2,2-Difluoroethyl)-1H-pyrazolo[3,4-b]pyrazin-6-yl]-1-({[4-(trifluoromethyl)pyridin-2-yl]oxy}methyl)-3-azabicyclo[3.1.0]hexane] |
| < 10 µM | CC1CC(COc2cccnc2C(F)(F)F)CN(C(=O)c2ccc3cc[nH]c3c2)C1 (single isomer, unassigned) [Compound 252b] |
| 10 to 50 µM | COc1ccc(OCC2CCN(C(=O)c3c(C)cccc3OC)CC2)cc1 [Compound 481] |
| 10 to 50 µM | Cc1cccnc1OCC1CCN(C(=O)C2(c3ccccc3)CCOCC2)CC1 [Compound 360] |
| < 10 µM | FC(F)(F)COCCn1ncc2ncc(N3CCCC(COc4cccnc4C(F)(F)F)C3)nc21 (stereo not shown) [Compound 248, 1-(2-(2,2,2-Trifluoroethoxy)ethyl)-6-(3-(((2-(trifluoromethyl)pyridin-3-yl)oxy)methyl)piperidin-1-yl)-1H-pyrazolo[3,4-b]pyrazine] |
